Experimental findings from ChEMBL document CHEMBL2073954, “Transport activity of human MRP3 expressed in Sf9 cells: comparative studies with rat MRP3” (Pharm Res, 2002) are described below.

The target in data set [1] is T1, ATP-binding cassette sub-family C member 3 (Rattus norvegicus, UniProt O88563). The data set is described as follows: (§1) TP_TRANSPORTER: inhibition of E217betaG uptake in membrane vesicle from MRP3-expressing Sf9 cells. The class given is functional, cell membranes.
Data set [2] concerns the target Multidrug resistance associated protein (Homo sapiens, UniProt Q96QA9). Described as §1. The class given is functional, cell membranes.
The target in data set [3] is T1, ATP-binding cassette sub-family C member 3. The data set is described as follows: (§2) TP_TRANSPORTER: uptake in membrane vesicles from Mrp3-expressing Sf9 cells. The data set is classed as functional, cell membranes, Membrane vesicle.
Data set [4] shares this target. The data set is described as follows: TP_TRANSPORTER: inhibition of E217betaG uptake in membrane vesicles from Mrp3-expressing Sf9 cells. The class given is functional, cell membranes, Membrane vesicle.
Substrate in data set [5]: C[C@]12CC[C@@H]3c4ccc(O)cc4CC[C@H]3[C@@H]1CC[C@@H]2O[C@@H]1O[C@H](C(=O)O)[C@@H](O)[C@H](O)[C@H]1O
The data set is described as §2. The data set is classed as functional, cell membranes, Membrane vesicle.

Substrate in data set [6]: C[C@]12CC[C@@H]3c4ccc(O)cc4CC[C@H]3[C@@H]1CC[C@@H]2O[C@@H]1O[C@H](C(=O)O)[C@@H](O)[C@H](O)[C@H]1O
Description: TP_TRANSPORTER: uptake in membrane vesicle from MRP3-expressing Sf9 cells
Particulars: Sf9; Membrane vesicle.

As to `CNc1nc2c(Cc3cccnc3)c(C)c(O[C@@H]3O[C@H](C(=O)O)[C@@H](O)[C@H](O)[C@H]3O)c(C)c2s1` [E3040 GLUCURONIDE], the inhibitory constant (Ki) – broadly, the equilibrium dissociation constant of an inhibitor or competing ligand from its target – in data set [1] was determined as 2.6 µM; in data set [2] it was 5.6 µM. For the same molecule, the Activity entry in data set [3] was “substrate [+]”.

On to `CCCCC/C=C\C\C=C/C=C/C=C/[C@@H](SC[C@@H](NC(=O)CC[C@H](N)C(=O)O)C(=O)NCC(=O)O)[C@@H](O)CCCC(=O)O` [LEUKOTRIEN C4], for which the Activity entry in data set [3] was “substrate [+]”.

As for `N[C@@H](CCC(=O)N[C@H](CSc1ccc([N+](=O)[O-])cc1[N+](=O)[O-])C(=O)NCC(=O)O)C(=O)O`, the inhibitory constant (Ki) in data set [2] was determined as 337 µM; in data set [4], 83.8 µM. Also, the Activity result in data set [3] was “substrate [+]”.

In the case of `CN(Cc1cnc2nc(N)nc(N)c2n1)c1ccc(C(=O)N[C@@H](CCC(=O)O)C(=O)O)cc1` [METHOTREXATE], the figures for the Ki in data set [2] and in data set [4] were 1200 µM and 90 µM, respectively.

`O=C(O)[C@H]1O[C@@H](OCc2cc(=O)oc3cc(O)ccc23)[C@H](O)[C@@H](O)[C@@H]1O`: the Ki in data set [2] is 105 µM; in data set [4], 77 µM.

B1: ATP-binding cassette sub-family C member 3 (Rattus norvegicus) (protein)
chain: MDRLCGSGELGSKFWDSNLTVYTNTPDLTPCFQNSLLAWVPCIYLWAALPCYLFYLRHHRLGYIVLSCLSRLKTALGVLLWCISWVDLFYSFHGLVHGSSPAPVFFITPLLVGITMLLATLLIQYERLRGVRSSGVLIIFWLLCVICAIIPFRSKILLALAEGKILDPFRFTTFYIYFALVLCAFILSCFQEKPPLFSPENLDTNPCPEASAGFFSRLSFWWFTKLAILGYRRPLEDSDLWSLSEEDCSHKVVQRLLEAWQKQQTQASGPQTAALEPKIAGEDEVLLKARPKTKKPSFLRALVRTFTSSLLMGACFKLIQDLSPSSTHSCSASSSGLFRPHGPYWWGFLLAGLMFVSSTMQTLILHQHYHCIFVMALRIRTAIIGVIYRKALTITNSVKREYTVGEMVNLMSVDAQRFMDVSPFINLLWSAPLQVILAIYFLWQILGPSALAGVAVIVLLIPLNGAVSMKMKTYQVQQMKFKDSRIKLMSEILNGIKVLKLYAWEPTFLEQVEGIRQGELQLLRKGAYLQAISTFIWVCTPFMVTLITLGVYVCVDKNNVLDAEKAFVSLSLFNILKIPLNLLPQLISGMTQTSVSLKRIQDFLNQDELDPQCVERKTISPGRAITIHNGTFSWSKDLPPTLHSINIQIPKGALVAVVGPVGCGKSSLVSALLGEMEKLEGAVSVKGSVAYVPQQAWIQNCTLQENVLFGQPMNPKRYQQALETCALLADLDVLPGGDQTEIGEKGINLSGGQRQRVSLARAVYSDANIFLLDDPLSAVDSHVAKHIFDQVIGPEGVLAGKTRVLVTHGISFLPQTDFIIVLADGQITEMGHYSELLQHDGSFANFLRNYAPDENQEANEGVLQHANEEVLLLEDTLSTHTDLTDTEPAIYEVRKQFMREMSSLSSEGEGQNRPVLKRYTSSLEKEVPATQTKETGALIKEEIAETGNVKLSVYWDYAKSVGLCTTLFICLLYAGQNAVAIGANVWLSAWTNDVEEHGQQNNTSVRLGVYATLGILQGLLVMLSAFTMVVGAIQAARLLHTALLHNQIRAPQSFFDTTPSGRILNRFSKDIYVIHEVLAPTILMLFNSFYTSISTIVVIVASTPLFCVVVLPLAVFYGFVQRFYVATSRQLKRLESVSRSPIFSHFSETVTGTSVIRAYGRVQDFKVLSDAKVDSNQKTTYPYIASNRWLGVHVEFVGNCVVLFSALFAVIGRNSLNPGLVGLSVSYALQVTLSLNWMIRTLSDLESNIIAVERVKEYSKTETEAPWVLESNRAPEGWPRSGVVEFRNYSVRYRPGLELVLKNLTLHVQGGEKVGIVGRTGAGKSSMTLCLFRILEAAEGEIFIDGLNVAHIGLHDLRSQLTIIPQDPILFSGTLRMNLDPFGRYSDEDIWRTLELSHLSAFVSSQPTGLDFQCSEGGDNLSVGQRQLVCLARALLRKSRVLVLDEATAAIDLETDDLIQGTIRTQFEDCTVLTIAHRLNTIMDYNRVLVLDKGVVAEFDSPVNLIAAGGIFYGMAKDAGLA
For the molecule B1, in data set [5], the Km (in general, the substrate concentration at which the rate is half of its maximum) was found to be 33.4 µM.

B2: Multidrug resistance associated protein (Homo sapiens), Q96QA9 (protein)
chain: MDALCGSGELGSKFWDSNLSVHTENPDLTPCFQNSLLAWVPCIYLWVALPCYLLYLRHHCRGYIILSHLSKLKMVLGVLLWCVSWADLFYSFHGLVHGRAPAPVFFVTPLVVGVTMLLATLLIQYERLQGVQSSGVLIIFWFLCVVCAIVPFRSKILLAKAEGEISDPFRFTTFYIHFALVLSALILACFREKPPFFSAKNVDPNPYPETSAGFLSRLFFWWFTKMAIYGYRHPLEEKDLWSLKEEDRSQMVVQQLLEAWRKQEKQTARHKASAAPGKNASGEDEVLLGARPRPRKPSFLKALLATFGSSFLISACFKLIQDLLSFINPQLLSILIRFISNPMAPSWWGFLVAGLMFLCSMMQSLILQHYYHYIFVTGVKFRTGIMGVIYRKALVITNSVKRASTVGEIVNLMSVDAQRFMDLAPFLNLLWSAPLQIILAIYFLWQNLGPSVLAGVAFMVLLIPLNGAVAVKMRAFQVKQMKLKDSRIKLMSEILNGIKVLKLYAWEPSFLKQVEGIRQGELQLLRTAAYLHTTTTFTWMCSPFLVTLITLWVYVYVDPNNVLDAEKAFVSVSLFNILRLPLNMLPQLISNLTQASVSLKRIQQFLSQEELDPQSVERKTISPGYAITIHSGTFTWAQDLPPTLHSLDIQVPKGALVAVVGPVGCGKSSLVSALLGEMEKLEGKVHMKGSVAYVPQQAWIQNCTLQENVLFGKALNPKRYQQTLEACALLADLEMLPGGDQTEIGEKGINLSGGQRQRVSLARAVYSDADIFLLDDPLSAVDSHVAKHIFDHVIGPEGVLAGKTRVLVTHGISFLPQTDFIIVLADGQVSEMGPYPALLQRNGSFANFLCNYAPDEDQGHLEDSWTALEGAEDKEALLIEDTLSNHTDLTDNDPVTYVVQKQFMRQLSALSSDGEGQGRPVPRRHLGPSEKVQVTEAKADGALTQEEKAAIGTVELSVFWDYAKAVGLCTTLAICLLYVGQSAAAIGANVWLSAWTNDAMADSRQNNTSLRLGVYAALGILQGFLVMLAAMAMAAGGIQAARVLHQALLHNKIRSPQSFFDTTPSGRILNCFSKDIYVVDEVLAPVILMLLNSFFNAISTLVVIMASTPLFTVVILPLAVLYTLVQRFYAATSRQLKRLESVSRSPIYSHFSETVTGASVIRAYNRSRDFEIISDTKVDANQRSCYPYIISNRWLSIGVEFVGNCVVLFAALFAVIGRSSLNPGLVGLSVSYSLQVTFALNWMIRMMSDLESNIVAVERVKEYSKTETEAPWVVEGSRPPEGWPPRGEVEFRNYSVRYRPGLDLVLRDLSLHVHGGEKVGIVGRTGAGKSSMTLCLFRILEAAKGEIRIDGLNVADIGDPILFSGTLRMNLDPFGSYSEEDIWWALELSHLHTFVSSQPAGLDFQCSEGGENLSVGQRQLVCLARALLRKSRILVLDEATAAIDLETDNLIQATIRTQFDTCTVLTIAHRLNTIMDYTRVLVLDKGVVAEFDSPANLIAARGIFYGMARDAGLA
In the case of B2, in data set [6], the Km turned out to be 42.9 µM.
